Measurements published in patent US11858894B2, “Crystalline form of 1-(5-(2,4-Difluorophenyl)-1-((3-fluorophenyl)sulfonyl)-4-methoxy-1H-pyrrol-3-yl)-n-methylmethanamine salt” (Daewoong Pharmaceutical Co., Ltd., priority 2016, dated 2024).

Columns and labels:
Solubility test in water = format: physicochemical; details: thermodynamic from solid; deionized water, shaking and ultrasonic shaking
Description: For the solubility test in water, a sample of less than 10 mg was first precisely weighed and taken and placed into a vial, to which 50 μl of deionized water was added, shaking for 30 seconds and ultrasonic shaking for 1 minute were carried out, and these processes were repeated several times. The water solubility was calculated by measuring the amount of water used to dissolve all the samples.

[1] = Stability confirmation test (impurity formation during storage under severe conditions, liquid chromatography); format: physicochemical
Description: The stability test was carried out for the crystalline forms prepared in the Examples to evaluate the degree to which impurities were formed during storage under severe conditions (moisture-proof condition and high-humidity exposure condition). The results of the stability test under the moisture-proof condition were shown in Table 2 below, and the results of the stability test under the high-humidity exposure condition were shown in Table 3 below. For the stability test, vials containing 10 mg of each sample which was precisely weighed and taken were prepared in the planned quantity, and they were stored by dividing into the moisture-proof condition (60° C. and less than 10% relative humidity) and under the high-humidity exposure condition (60° C. and 95% relative humidity). However, under the high-humidity exposure condition, a stopper of the vial was not used to keep so that the sample is in sufficient contact with a moisture in the air. At a fixed point of time after the initiation of the test, two vials per point of time were taken (number of samples per test n=2). 10 ml of methanol was added to each vial to dissolve the sample, which was then centrifuged. The resulting supernatant was analyzed using a liquid chromatography. The peak area was determined by integration for all detected peaks, and the relative peak area for the main component and the total impurity was calculated and expressed as an average value.

[2] = high-humidity exposure condition (60° C., 95% relative humidity), After 1 week
[3] = high-humidity exposure condition (60° C., 95% relative humidity), After 2 weeks
[4] = high-humidity exposure condition (60° C., 95% relative humidity), After 4 weeks
[5] = high-humidity exposure condition (60° C., 95% relative humidity), Initial
[6] = moisture-proof condition (60° C., less than 10% relative humidity), After 2 weeks
[7] = moisture-proof condition (60° C., less than 10% relative humidity), After 4 weeks
[8] = moisture-proof condition (60° C., less than 10% relative humidity), Initial

| solubility (Solubility test in water) | Peak area of main component [1, 2] | Peak area of total impurities [1, 2] | Peak area of main component [1, 3] | Peak area of total impurities [1, 3] | Peak area of main component [1, 4] | Peak area of total impurities [1, 4] | Peak area of main component [1, 5] | Peak area of total impurities [1, 5] | Peak area of main component [1, 6] | Peak area of total impurities [1, 6] | Peak area of main component [1, 7] | Peak area of total impurities [1, 7] | Peak area of main component [1, 8] | Peak area of total impurities [1, 8] | SMILES |
| --- | --- | --- | --- | --- | --- | --- | --- | --- | --- | --- | --- | --- | --- | --- | --- |
| < 160 µg/mL |  |  |  |  |  |  |  |  |  |  |  |  |  |  | CNCc1cn(S(=O)(=O)c2cccc(F)c2)c(-c2ccc(F)cc2F)c1OC [Comparative Example 1, 1-(5-(2,4-difluorophenyl)-1-((3-fluorophenyl)sulfonyl)-4-methoxy-1H-pyrrol-3-yl)-N-methylmethanamine free base] |
|  | 99.81% | 0.19% | 99.80% | 0.20% | 99.80% | 0.20% | 99.82% | 0.18% | 99.80% | 0.19% | 99.80% | 0.20% | 99.82% | 0.18% | CNCc1cn(S(=O)(=O)c2cccc(F)c2)c(-c2ccc(F)cc2F)c1OC.Cl [Example 1-1, 1-(5-(2,4-difluorophenyl)-1-((3-fluorophenyl)sulfonyl)-4-methoxy-1H-pyrrol-3-yl)-N-methylmethanamine hydrochloride] |
|  | 99.56% | 0.44% | 99.53% | 0.47% | 99.47% | 0.54% | 99.55% | 0.45% | 99.61% | 0.39% | 99.55% | 0.45% | 99.55% | 0.45% | CNCc1cn(S(=O)(=O)c2cccc(F)c2)c(-c2ccc(F)cc2F)c1OC.O=C(O)CCC(=O)O [Example 3-1, 1-(5-(2,4-difluorophenyl)-1-((3-fluorophenyl)sulfonyl)-4-methoxy-1H-pyrrol-3-yl)-N-methylmethanamine succinate] |
|  | 99.48% | 0.52% | 99.43% | 0.57% | 99.23% | 0.77% | 99.52% | 0.48% | 99.54% | 0.46% | 99.48% | 0.52% | 99.52% | 0.48% | CNCc1cn(S(=O)(=O)c2cccc(F)c2)c(-c2ccc(F)cc2F)c1OC.O=C(O)C(O)C(O)C(=O)O [Example 4-1, 1-(5-(2,4-difluorophenyl)-1-((3-fluorophenyl)sulfonyl)-4-methoxy-1H-pyrrol-3-yl)-N-methylmethanamine tartrate] |
| 1730 to 2600 µg/mL | 99.40% | 0.60% | 99.32% | 0.68% | 99.30% | 0.70% | 99.38% | 0.62% | 99.36% | 0.64% | 99.37% | 0.63% | 99.38% | 0.62% | CNCc1cn(S(=O)(=O)c2cccc(F)c2)c(-c2ccc(F)cc2F)c1OC.O=C(O)/C=C/C(=O)O [Example 5-1, 1-(5-(2,4-difluorophenyl)-1-((3-fluorophenyl)sulfonyl)-4-methoxy-1H-pyrrol-3-yl)-N-methylmethanamine fumarate] |
